From patent US7037928B2, “Compositions of N-(methylethylaminocarbonyl)-4-(-3-methylphenylamino)-3-pyridylsulfonamide and cyclic oligosaccharides” (PLIVA, farmaceutska industrija, dionicko drustvo, priority 2000, dated 2006) come the findings set out here.

This data set in a line: Release of torasemide (active substance) in water, USP 24. Conditions: 37° C., 50 rpm, 1000 ml. The data set is classed as physicochemical. The protocol:
The physical mixture of the modification I of torasemide and β-cyclodextrin prepared according to the Example 1 of the present invention was subjected to testing the release of the active substance in water at the temperature of 37° C.
The inclusion complex of the modification I of torasemide and β-cyclodextrin to the Example 3 of the present invention was subjected to testing the release of the active substance in water at the temperature of 37° C.

In the case of `Cc1cccc(Nc2ccncc2S(=O)(=O)NC(=O)NC(C)C)c1` [Modification I of torasemide, N-(1-methylethylaminocarbonyl)-4-(3-methylphenylamino)-3-pyridylsulfonamide], the “Released torasemide (%)” value reads like this: (time 0 min) 0%; (time 15 min) 0.7%; (time 30 min) 20.3%; (time 45 min) 38.5%; (time 60 min) 51.8%; (time 90 min) 68.5%. In addition, under “time 120 min”, the “Released torasemide (%)” value is recorded as 78.7%.
